Measurements: US20080311103A1, “Anti-Inflammatory Peptides and Methods of Use Thereof” (YEDA RESEARCH AND DEVELOPMENT CO. LTD. at THE WEIZMANN …, priority 2004, published 2008)

Assays:
[1] = test system: anti-CD3 antibody induced TNFα secretion from T cells; experiment: TNFα secretion by anti-CD3 activated T cells; format: cell-based, human; details: peptide 100 ng/ml; 24 hours; ELISA; FIG. 7A
Method: (§1) Human T cells were purified and maintained in culture (RPMI containing 10% FCS, 1% Pyruvate, 1% glutamine, 1% antibiotics, 7.5% CO2, humidified atmosphere) for 15 hr before they were transferred to RPMI and activated (2 hr, 37° C.) with the indicated concentrations of the peptides. The cells were then plated (1.5×10^6 cells/0.5 ml/well) in 24 wells plates (non-tissue culture grade) precoated with anti-CD3 mAb in order to stimulate the cells to secrete cytokines. After 24 hours, the supernatants were collected and their cytokine content (TNFα and IFNγ) was determined by ELISA using anti-IFNγ and anti TNFα mAb (Pharmingen; San Diego, Calif.) according to the manufacturer's instructions.

T cells = experiment: Chemotaxis assay: T cell migration toward SDF-1α; format: cell-based; details: concentration range 10-1000 ng/ml; SDF-1α 250 ng/ml; 3 hr
Method: The migration of ^51-[Cr]-labeled T cells was examined in […] Transwell chemotaxis apparatus (6.5-mm diameter; Corning, N.Y.), consisting of two compartments separated by polycarbonate filters (5 μm pore size) pretreated (1 hr, 37° C.) with FN (25 μg/ml). ^51-[Cr]-labeled T cells (2×10^5 in 100 μl of RPMI containing 0.1% BSA and antibiotics), which were pre-incubated with the indicated concentrations of peptides (30 min, 37° C.), were added to the upper chambers. The bottom chambers contained 0.6 ml of the same media, with or without human Stromal cell-Derived Factor-1α (SDF-1α; 250 ng/ml). After incubation at 37° C. for 3 hr (7.5% CO2-humidified atmosphere), cells that had transmigrated into the lower wells were collected, centrifuged, and lysed (in 100 μl of distilled water containing 1 M NaOH and 0.1% Triton X-100), and the radioactivity in the resulting supernatants was determined with a γ-counter. The percentage (±SD) of cell migration was calculated as the radioactivity counts in the lysates of the lower chambers (representative of the migrating cells) divided by the total counts (representative of 2×10^5 cells).

BALB/C mice = experiment: TNBS-induced colitis model of inflammatory bowel disease (IBD); format: in vivo, mouse; details: 50 μg/mouse SC daily; day 7 after TNBS
Method: BALB/C mice, which were anesthetized for 5-10 min, received by intrarectal administration, 30 μl of a solution of 2,4,6-trinitrobenzene sulfonic acid (TNBS; 100 mg/kg) dissolved in 0.9% NaCl and mixed with an equal volume of ethanol (50% ethanol). Animals were killed 7 days after TNBS administration.
Wound fluid peptides were administered once daily by subcutaneous (SC) administration starting 1 day before the induction of colitis and every day for the next 7 days as follows:
Treatment with the wound fluid peptides was evaluated at day 7 by determination of macroscopic inflammation scores. The colon of each mouse was examined under a dissecting microscope to evaluate the macroscopic lesions according to the Wallace criteria. The Wallace score lists macroscopic colon lesions on a scale from 0 to 10 based on features reflecting inflammation, such as hyperemia, thickening of the bowel, and extent of ulceration (Wallace, J. L., et al. 1989, Gastroenterology, 96:29).

[2] = test system: anti-CD3 antibody induced IFNγ secretion from T cells; experiment: IFNγ secretion by anti-CD3 activated T cells; format: cell-based, human; design: concentration or dose not given beside the values; details: 24 hours; ELISA; FIG. 7B
Method: as §1

[3] = test system: lymph node cells of oxazalone-sensitized mice transferred to syngeneic recipient mice; experiment: Adoptive transfer DTH assay; format: in vivo, mouse; details: lymph node cells incubated 20 hours with peptide (10 rig/ml), injected i.v. to recipient mice; ear swelling after 24 hours
Method: Female inbred BALB/c mice (The Jackson Laboratory, Bar Harbor, Me.) were sensitized on the shaved abdominal skin with 2% oxazalone (100 μl) dissolved in acetone/olive oil [4:1 (vol/vol)]. Two donor mice were sensitized for one recipient mouse. On day 5, lymph nodes were removed and single-cell suspensions of lymph node cells were prepared. Lymph node cells were incubated (20 hours) with either peptide No. 3 or peptide No. 5 (10 rig/ml) in RPMI 1640 containing 10% FCS. After the incubation, the cells were washed, resuspended with PBS and injected intravenously (40 million cells per mouse) to syngeneic recipient mice. The mice were immediately challenged with 0.5% oxazalone in acetone/olive oil (10 μl given topically to each side of the ear) to elicit DTH reactions. The increment of ear swelling was measured after 24 hours.

[4] = test system: mice sensitized with oxazolone; format: in vivo, mouse; details: FIG. 1; peptides by implanted osmotic pump, 0.2 μg/hour for 7 days; ear measured 24 hours after oxazolone challenge; BALB/c mice
Method: Groups of 5 female inbred BALB/c mice (The Jackson Laboratory, Bar Harbor, Me.) were sensitized on the shaved abdominal skin with 2% oxazolone (100 μl) dissolved in acetone/olive oil [4:1 (vol/vol)] applied topically. Delayed type hypersensitivity (DTH) was elicited 5 days later by challenging the mice with 0.5% oxazolone in acetone/olive oil (10 μl given topically to each side of the ear). A constant area of the ear was measured immediately before and 24 hours after the challenge using a Mitutoyo engineer's micrometer. The percent inhibition of DTH is calculated as follows:
% Inhibition=[1-{(treated−negative control)/(positive control−negative control)}]×100.
The positive control is the DTH reaction to oxazolone elicited in sensitized mice without treatment. The negative control is the background swelling produced by the oxazolone antigen in naïve non-sensitized mice.
Peptides Nos. 1-5 were given to the mice by mini perfusion pumps (alzet osmotic pump model 2001), which contained the indicated peptide (40 μg; 200 μl). The pumps were implanted under the mouse skin one day before oxazolone sensitization and they released the peptide in a rate of 1 μl per hour (0.2 μg/hour) for 7 days.
Peptides Nos. 6-10 were given to the mice by subcutaneously injection (1 μg or 10 μg per mouse), every day, starting at one day before oxazolone sensitization and ending at day 5 post DTH initiation.

Jurkat and THP-1 cells = experiment: TNFα secretion by PMA/PHA induced Jurkat and THP-1 cells; format: cell-based, human; details: peptide 1 μg/ml; 48 hours; ELISA
Method: Jurkat cells human T cell lymphoma line) (2×10^6 cells/ml) cultured in RPMI-1640 supplemented with 10% FCS were activated with PMA (50 ng/ml) and phytohaemagglutinin PHA (4 µg/ml) for 6 hours at 37° C. (7.5% CO2-humidified atmosphere). Thereafter, the cells were washed, plated on 24-well plates (10^6 cells/well in 0.5 ml), and incubated (1 hour at 37° C., 7.5% CO2-humidified atmosphere) with the indicated concentrations of peptides 1-5. Following the incubation, THP-1 cells (human monocytic cell line derived from a patient with acute monocytic leukaemia; 1.25×10^5 cells/0.5 ml/well) were added to the wells. After 48 hours, the supernatants were collected and their TNF[…] content was determined by ELISA using anti TNF[…] mAb (Pharmingen; San Diego, Calif.) according to the manufacturer's instructions.

## WDNLEKETEGL [peptide No. 3, residues 96-106 of Apo A-I; identified in wound fluids, then synthesized]
[1]
  inhibition of anti-CD3 antibody induced TNFα secretion from T cells: 50%
T cells
  inhibition of T cell transmigration toward SDF-1α: did not show a significant inhibition
BALB/C mice
  Wallace score (macroscopic inflammation score, scale 0 to 10): 4.0±1.3
[2]
  inhibition of anti-CD3 antibody induced IFNγ secretion from T cells: 65%
[3]
  inhibition of adoptive transfer DTH response: 80%
[4]
  inhibition of DTH response: ~40%
Jurkat and THP-1 cells
  inhibition of TNFα secretion by Jurkat and THP-1 cells compared to PMA/PHA alone: 50%
